Experimental data published in a melting point compilation (Tetko et al.; mined from patent text by program, amines drawn as free bases though some values may be those of a salt).

SMILES	melting point [°C]
CC(=O)OCC1OC(n2c3ncccc3c3c4c(c5c6ccccc6[nH]c5c32)C(=O)N(C)C4=O)C(OC(C)=O)C(OC(C)=O)C1OC(C)=O (configuration not stated)	302 to 304
COCCc1nc2c(N)nc3ccc(Br)cc3c2n1CCCN1CCCC1=O	185 to 188
Oc1cc2c3c(sc2c(Cl)c1Cl)CCCC3	103 to 105
O=C(O)C(=O)Nc1ccccc1C(=O)NC1CCN(C2CCCCC2)C1 (configuration not stated)	268 to 270
Oc1cccc2cnsc12	185 to 187
CC(C)Cc1cc(NC(=O)c2nccnc2Cl)ccc1C(C(F)(F)F)C(F)(F)F	128 to 129
O=C(O)c1ccc2c(c1)C(=O)c1cc(C(=O)O)ccc1S2(=O)=O	372 to 375
COc1c(C)c(=O)oc2cc(-c3nnc(C)s3)ccc12	177
Nc1ncc(CN2CC=C(c3ccccc3)CC2)c(N)n1	239 to 241
CNCC1Cc2cc(F)cc(-c3cc(Cl)ccc3Cl)c2O1 (configuration not stated)	118 to 120
CNc1nc(C)c(C(=O)c2sc(NC)nc2C)s1	184 to 185
FC(F)(F)c1ccc(-c2cc(C(F)(F)F)n3ncc(C#Cc4cncnc4)c3n2)cc1	175
O=C(O)Cc1onc(O)c1Cl	155
COc1ccc2c(C)c(CCCl)c(=O)oc2c1OC	137 to 139
CN(C)Cc1ccc(C(=O)CCC(=O)N2CCN(c3ccc(N4C[C@H](CNC(=S)C5CC5)OC4=O)cc3F)CC2)cc1	174 to 175
Nc1nc(F)c(OC(F)F)c(Cl)n1	77 to 80
COC(=O)c1nccc(N)n1	140 to 142
O=[N+]([O-])c1cc(Cl)c(CCl)c(Cl)c1	37 to 39
Cc1c(N2C(=O)C[C@H](O)[C@@H]2C)ccc(C#N)c1F	114 to 115
CN1CCC(Oc2ccc(NC(=O)n3ccc4cc(Oc5cc(CC(N)=O)ncn5)ccc43)cc2C(F)(F)F)CC1	200 to 201
CCOC(=O)COc1cc(-c2nn(C)c(C(F)(F)F)c2Cl)c(F)cc1Cl	130 to 131
CCn1c(C(O)(C2CCCCC2)C2CCCCC2)nc(-c2ccncc2)c1-c1ccc(Cl)cc1	221 to 224
O=C(C1CC1)N1CCCCc2cc(C(O)(C(F)(F)F)C(F)(F)F)ccc21	165 to 167
O=C(O)c1cnccc1C(=O)c1ccc(F)cc1	231 to 232
Cc1nc(Cl)c([N+](=O)[O-])c(Cl)n1	42 to 44
O=C1CCOc2c(Cl)cc(Br)cc21	109
Cc1cc(C=CC#N)cc(C(=O)c2[nH]c(=O)[nH]c(=O)c2C(C)C)c1	233 to 235
CN1C(=O)C2C3C=CC(C3)C2(c2ccc3c(c2)CCCC3)C1=O (configuration not stated)	78 to 86

SMILES	melting point [°C]
O=C(O)COCCc1ccc(Cl)cc1	75 to 77
Cc1nc(N)c2ncn(N(C)C)c2c1C	205 to 207
C[C@@H](Cc1c2n(c3cc(F)c(O)cc13)CCC2)NC(=O)OC(C)(C)C	198 to 199
CC(=O)SC(CC(=O)c1ccc(Cl)c(Cl)c1)C(=O)O (configuration not stated)	102 to 105
C=C1C=Cc2cc(C(=O)O)ccc2OC1	188
Cc1cc(S(=O)(=O)N2CC(C)CC(C)C2)ccc1[N+](=O)[O-] (configuration not stated)	133 to 138
CCOC(=O)c1cn(-c2ccc(C(F)(F)F)cn2)nc1C(C)CC (configuration not stated)	63 to 64
COc1cc(OC)nc(NC(=O)NS(=O)(=O)c2ccccc2C(C)=O)n1	126 to 128
CC(=O)OC1CC2CCC3C(CCC4(C)C(O)C(N5CCCC5)CC34)C2(C)CC1N1CCOCC1 (configuration not stated)	112 to 118
Sc1nc2cc(Cl)c(Cl)cc2s1	234 to 236
CCOC(=O)c1ncn2c1C(C)N=C(c1ccccn1)c1cc(Br)ccc1-2 (configuration not stated)	193 to 195
CC1(C)OC(=O)c2c(cccc2OS(=O)(=O)C(F)(F)F)O1	115
CC(C)c1ccc2nc(Cl)cn2n1	69 to 71
CN1Cc2c(C(N)=NO)ncn2-c2cccc(Cl)c2C1=O	> 250
CCN(CC)C(=S)c1c(C)cccc1[Si](C)(C)C	82 to 83
CC(C)[C@H](NC(=O)N1CCOCC1)C(=O)N[C@@H](Cc1ccccc1)C[C@H](O)[C@H](Cc1ccccc1)NC(=O)[C@@H](NC(=O)N1CCOCC1)C(C)C	198 to 201
Cc1ccnc(-c2ccc(C(F)(F)F)cc2)n1	50
O=C(CCl)c1ccc2c(c1)[C@H](NC(=O)C(F)(F)F)CC2	166 to 167
O=C(Nc1cccc2c1C(=O)c1c-2n[nH]c1-c1ccc(N2CCC(N3CCOCC3)CC2)cc1)NN1CCOCC1	249
Cc1ccc(S(=O)(=O)c2ccc3c(c2)[C@@H](N2CCCC2=O)[C@H](O)C(C)(C)O3)cc1 (relative stereo)	242 to 243
CCOC(=O)c1c[nH]c2c(O)c(OC)ccc2c1=O	233 to 236
COc1ccc(C=CC(=O)O)cc1-c1cc2c(cc1OCCCCCCCC(=O)O)C(C)(C)CCC2(C)C	212 to 214
CCOC(=O)N1c2ccc(C(F)(F)F)cc2[C@@H](NC(=O)OC)C[C@H]1CC	157 to 158
CC(=O)OC1CCC2C3CCC4CC(O[Si](C)(C)C(C)(C)C)CCC4C3CCC12C (configuration not stated)	89 to 90
CONS(=O)(=O)c1ccc(Cl)cc1	81 to 82.5
COc1c(O)c(C)c(CN2CCN(C(=S)SC)CC2)c(O)c1OC	135 to 136
COc1ccc2cc([C@H](C)C(=O)OCCOC(=O)C(=O)OCCCO[N+](=O)[O-])ccc2c1	55 to 58

Other lines, results leading:

melting point [°C]	SMILES
128	O=C1CCC(O)(c2ccc(Cl)c(Cl)c2)CN1Cc1ccccc1 (configuration not stated)
110 to 117	Cc1onc(NS(=O)(=O)c2ccccc2-c2ccc(-c3ncco3)cc2CN2CCC(C)(C)C2=O)c1C
111 to 112	Cc1oc(-c2ccccc2)nc1COc1cncc(CO)c1
287 to 289	CC(C)(Cn1cnc2c(N)nc3ccccc3c21)C(N)=O
196 to 199	COc1ccc2c(c1)C(c1ccc(O)cc1)c1c-2ccc2cc(OC)ccc12 (configuration not stated)
170 to 175	O=C(O)CP(=O)(O)C(CCCc1ccccc1)NC(=O)c1ccccc1 (configuration not stated)
199 to 200	N#Cc1ccc(OCCCN2CCN(C(CC(=O)O)c3cccnc3)C(=O)C2=O)cc1 (single isomer, unassigned; (-))
190 to 191	CC(C)n1nnnc1CCCn1ccc2cc(NC(=O)c3nc4ccc(Cl)cc4n3Cc3ccccc3)ccc21
90 to 92	CCCOc1nc2cccc(C(=O)OCC)c2n1Cc1ccc(-c2ccccc2C#N)cc1
193 to 195	O=c1[nH]c2ccccc2c(=O)n1CCS
60 to 65	CC(C)Cc1nn(C)c(=O)c2c(S(=O)CCCO)c(Cc3cccc4ccccc34)sc12 (configuration not stated)
216 to 221	O=C(O)C1Cc2c(cccc2-c2ccccc2)CN1C(=O)C(c1ccccc1)c1ccccc1 (configuration not stated)
244 to 248	O=C(Nc1nc(-c2ccco2)c(-c2ccncc2)s1)c1ccn(Cc2ccccc2)c(=O)c1
58 to 59	Cc1oc(-c2ccccc2)nc1COc1ccc(CCCCCBr)cc1
251 to 254	CC(=O)Oc1ccc(-c2ccc3oc(C(=O)O)cc3c2)cc1
125 to 128	Oc1cccc(-c2ccccc2-c2nc(-c3ccccc3)c(-c3ccccc3)o2)c1
130 to 132	COc1ccc2c(n1)C1(CO2)C(=O)N(Cc2ccc(Cl)s2)c2ccccc21 (configuration not stated)
135 to 138	N#Cc1ccc(C(O)c2occc(=O)c2OCc2ccccc2)cc1 (configuration not stated)
70 to 72	O=C(OCC1OCCS1=O)c1ccccc1 (configuration not stated)
148 to 150	COc1ccc(CN2C(=O)[C@@H](N3C(=O)c4ccccc4C3=O)[C@H]2CCc2ccccc2)c(OC)c1 (relative stereo)
118 to 120	Cc1cc(N2CCN(Cc3ccc(N)cc3)C2=O)sc1C(=O)NCc1cccnc1

melting point [°C]	SMILES
213 to 214	O=C1c2ccccc2C(=O)N1CC(O)Cn1ccnc1[N+](=O)[O-] (configuration not stated)
58 to 61	CCN(c1cccc2cc(C(=O)NCCSC(c3ccccc3)(c3ccccc3)c3ccccc3)[nH]c12)S(=O)(=O)c1cccs1
121 to 124	Cc1nc[nH]c1CSCCNC1=Nc2ccccc2C(=O)C1
156 to 157	CC(=O)N1c2ccccc2-c2c([N+](=O)[O-])cnn2C1c1ccccc1 (configuration not stated)
138 to 147	CCCCCCC(C(=O)Nc1ccccc1O)n1cnc(NC(=O)c2ccccc2S(=O)(=O)O)c1 (configuration not stated)
307 to 309	COc1cc(C2C3=C(COC3=O)Nc3ccc4cn[nH]c4c32)ccc1F (configuration not stated)
210 to 211	Cc1cc(C)cc(-c2cc(O)c(Sc3ccccc3)c(=O)o2)c1
228 to 232	N#Cc1ccc(C(=O)N2CCc3c([nH]c4ccccc34)C2)cc1
140 to 142	CSC1C(=O)Nc2c(Oc3ccccn3)cccc21 (configuration not stated)
97 to 98	CC(C)c1c(C=O)c(-c2ccc(F)cc2)n2ccccc12
235	COc1cccc(OC)c1-c1ccc(C[C@H](NC(=O)c2c(Cl)ccc(Br)c2Cl)C(=O)O)cc1
159 to 161	Nc1cc(C(=O)O)cc(SCc2ccccc2)c1Oc1ccccc1
110 to 111	O=C1N[C@H](Cc2ccc(C(F)(F)F)cc2)[C@H](c2ccc(Oc3ccccc3)cc2)O1 (racemic)
42 to 45	CCCCc1ccc(C(=O)C(CC(=O)N[C@@H](Cc2cc(F)cc(F)c2)[C@H](O)CNCc2cccc(CC)c2)Cc2ccccc2)cc1 (some centres not stated)
120 to 125	COc1ccccc1CN[C@H]1CCCN(CCCc2ccccc2)[C@H]1c1ccccc1 (relative stereo)
159 to 161	CC(C)(C)c1ccc(-c2nc3ccc([N+](=O)[O-])cc3c(=O)o2)cc1
109 to 118	COc1ccc(/C=C/c2cc(/C=C/c3ccc4[nH]ccc4c3)n[nH]2)cc1OCc1ccccn1
220 to 222	CCn1c(=N)c(-c2ccsc2)cc2cnc(Nc3ccccc3)nc21
81 to 83	COc1ccccc1OCC1SCCN1C(=O)CI (configuration not stated)
182	COC(=O)c1ccc(C2c3[nH]c4ccccc4c3CCN2C(=O)C=Cc2cccc(C(=O)OC)c2)cc1 (configuration not stated)
225 to 227	CCCCc1ncc(C=C2C(=O)NC(=O)N2Cc2ccc(Cl)cc2)n1Cc1ccc(C(=O)O)cc1
